Series [1] concerns the target T1, ATP-dependent translocase ABCB1 (Homo sapiens, UniProt P08183). Nature of the series: Inhibition of P-gp-mediated doxorubicin efflux in human Lucena 1 cells assessed as ratio of doxorubicin fluorescence intensity in presence of compound to doxorubicin fluorescence intensity in absence of compound at 25 uM preincubated for 1 hr followed by doxorubicin addition measured after 1 hr by flow cytometry. Type of series: cell-based.

For series [2], the target named is T1, ATP-dependent translocase ABCB1. The series can be described thus: Inhibition of P-gp-mediated doxorubicin efflux in human Lucena 1 cells assessed as ratio of doxorubicin fluorescence intensity in presence of compound to doxorubicin fluorescence intensity in absence of compound at 6.25 uM preincubated for 1 hr followed by doxorubicin addition measured after 1 hr by flow cytometry. The series is classed as cell-based.

Series [3] relates to K562. The series can be described thus: Inhibition of doxorubicin efflux in human K562 cells at 25 uM preincubated for 1 hr followed by doxorubicin addition measured after 1 hr by flow cytometry. The series is classed as functional, cell-based.
The target of series [4] is T1, ATP-dependent translocase ABCB1. The series can be described thus: Inhibition of P-gp-mediated doxorubicin efflux in human Lucena 1 cells assessed as ratio of doxorubicin fluorescence intensity in presence of compound to doxorubicin fluorescence intensity in absence of compound at 1.56 uM preincubated for 1 hr followed by doxorubicin addition measured after 1 hr by flow cytometry. The series is classed as cell-based.

Series [5] has the same target. Nature of the series: Inhibition of P-gp-mediated doxorubicin efflux in human Lucena 1 cells preincubated for 1 hr followed by doxorubicin addition measured after 1 hr by flow cytometry. The series is classed as cell-based.
The target of series [6] is P-gp (ABCB1) (Homo sapiens, UniProt P08183). Nature of the series: Stimulation of P-gp (unknown origin) ATPase activity at 10 uM relative to control. The following applies: read-out: Activity.
Chain of P-gp (ABCB1) (P08183 whole entry): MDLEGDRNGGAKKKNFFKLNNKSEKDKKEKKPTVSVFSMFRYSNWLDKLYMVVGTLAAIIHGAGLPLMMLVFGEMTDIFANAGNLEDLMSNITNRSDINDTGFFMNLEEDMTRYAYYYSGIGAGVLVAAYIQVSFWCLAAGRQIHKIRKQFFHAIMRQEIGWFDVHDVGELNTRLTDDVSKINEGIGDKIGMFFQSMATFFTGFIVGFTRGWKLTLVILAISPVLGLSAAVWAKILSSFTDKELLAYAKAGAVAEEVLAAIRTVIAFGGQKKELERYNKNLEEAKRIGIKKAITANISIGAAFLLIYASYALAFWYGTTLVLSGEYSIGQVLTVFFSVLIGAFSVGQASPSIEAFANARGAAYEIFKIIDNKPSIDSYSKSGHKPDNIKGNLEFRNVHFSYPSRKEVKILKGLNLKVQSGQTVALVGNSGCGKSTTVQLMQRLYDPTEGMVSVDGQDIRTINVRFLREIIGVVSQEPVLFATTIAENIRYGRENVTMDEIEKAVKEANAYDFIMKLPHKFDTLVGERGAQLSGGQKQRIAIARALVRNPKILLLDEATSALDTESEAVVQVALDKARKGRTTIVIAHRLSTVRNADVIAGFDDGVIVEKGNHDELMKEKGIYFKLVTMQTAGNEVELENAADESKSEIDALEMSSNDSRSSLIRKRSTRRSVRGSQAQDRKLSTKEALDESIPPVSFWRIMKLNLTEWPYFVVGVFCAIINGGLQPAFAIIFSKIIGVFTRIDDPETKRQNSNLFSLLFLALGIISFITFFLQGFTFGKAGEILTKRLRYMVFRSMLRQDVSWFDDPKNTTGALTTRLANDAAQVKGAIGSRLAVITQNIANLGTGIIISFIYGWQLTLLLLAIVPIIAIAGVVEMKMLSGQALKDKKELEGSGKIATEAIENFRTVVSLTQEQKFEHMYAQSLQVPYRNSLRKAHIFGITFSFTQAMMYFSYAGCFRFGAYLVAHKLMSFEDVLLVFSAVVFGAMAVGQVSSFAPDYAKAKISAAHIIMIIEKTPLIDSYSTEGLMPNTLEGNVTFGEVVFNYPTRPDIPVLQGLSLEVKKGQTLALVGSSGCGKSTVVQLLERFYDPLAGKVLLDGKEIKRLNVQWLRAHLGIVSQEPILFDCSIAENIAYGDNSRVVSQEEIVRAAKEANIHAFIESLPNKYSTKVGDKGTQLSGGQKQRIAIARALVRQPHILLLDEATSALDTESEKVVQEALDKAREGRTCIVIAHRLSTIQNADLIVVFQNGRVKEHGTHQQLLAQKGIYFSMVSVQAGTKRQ
The target in series [7] is T1, ATP-dependent translocase ABCB1. The series can be described thus: Inhibition of P-gp-mediated Rho-123 efflux in human Lucena 1 cells at 50 uM preincubated for 1 hr followed by Rho-123 addition measured after 1 hr by flow cytometry. The series is classed as cell-based.
Series [8] has the same target. The series can be described thus: Inhibition of P-gp-mediated doxorubicin efflux in human Lucena 1 cells assessed as ratio of doxorubicin fluorescence intensity in presence of compound to doxorubicin fluorescence intensity in absence of compound at 0.78 uM preincubated for 1 hr followed by doxorubicin addition measured after 1 hr by flow cytometry. Type of series: cell-based.

For series [9], the system named is PBMC. Nature of the series: Cytotoxicity against human PBMC at 25 uM after 48 hrs by MTT assay relative to control. The series is classed as cell-based.
Series [10] relates to PBMC. Nature of the series: Cytotoxicity against human PBMC at 6.25 uM after 48 hrs by MTT assay. Type of series: cell-based.
For series [11], the system named is K562. Type of series: functional, cell-based. The following applies: Homo sapiens, 3.12 uM.
Series [12] concerns the target T1, ATP-dependent translocase ABCB1. The series can be described thus: Inhibition of P-gp-mediated Rho-123 efflux in human Lucena 1 cells at […] preincubated for 1 hr followed by Rho-123 addition measured after 1 hr by flow cytometry. Type of series: cell-based.
Series [13] shares this target. The series can be described thus: Inhibition of P-gp-mediated doxorubicin efflux in human Lucena 1 cells assessed as ratio of doxorubicin fluorescence intensity in presence of compound to doxorubicin fluorescence intensity in absence of compound at 0.39 uM preincubated for 1 hr followed by doxorubicin addition measured after 1 hr by flow cytometry. Type of series: cell-based.

The subject of series [14] is K562. The series can be described thus: Potentiation of doxorubicin-induced cytotoxicity in human K562 cells assessed as decrease in doxorubicin IC50 at 1.56 uM after 48 hrs by MTT assay. The series is classed as functional, cell-based.

Activity calls are given as the source filed them. No cut-off for these calls is given here.

The values that follow come from ChEMBL document CHEMBL4325923, “Analogues of the Lignan Pinoresinol as Novel Lead Compounds for P-glycoprotein (P-gp) Inhibitors” (ACS Med Chem Lett, 2018).

T1 sequence (P08183 whole entry): as above

Regarding `Cc1c(-c2ccc(O)c(O)c2)[nH]c2ccc(O)cc12`, the Ratio in series [1] was found to be 0.72.
In the case of `Cc1c(-c2ccc(O)c(O)c2)n(C)c2ccc(O)cc12`, the Ratio in series [1] was determined as 0.75.
For `CC/C(=C(/CC)c1ccc(OCCOC(C)=O)cc1)c1ccc(OCCOC(C)=O)cc1`, the Ratio in series [2] is reported as 1.12; in series [4], 1.03; in series [1] it was 1.21. For the same molecule, in series [3], the inhibition result was “inactive”. In addition, the “inhibition (INH)” value in [5] is “Dose-dependent effect”.
Turning to `CC/C(=C(/CC)c1ccc(OCCCOC(C)=O)cc1)c1ccc(OCCCOC(C)=O)cc1`, the Ratio in [2] is recorded as 1.06; in series [4] it was 1.02; in [1] it was 1.21. In addition, in series [3], the inhibition result was “inactive”. In addition, in series [5], the “inhibition (INH)” value is recorded as “Dose-dependent effect”.
`COc1cc([C@@H]2CC(O)=Nc3c2cnn3Cc2cccs2)ccc1O`: the Ratio in series [1] is 0.96.
With `CC/C(=C(/CC)c1ccc(OCCO)cc1)c1ccc(OCCO)cc1`, the Ratio amounted to 1.08 in series [2] and 1.16 in [1]. Further, the inhibition entry in series [3] was “inactive”. Further, in series [5], the “inhibition (INH)” value is on record as “Dose-dependent effect”.
Turning to `CC/C(=C(/CC)c1ccc(S(=O)(=O)[O-])cc1)c1ccc(S(=O)(=O)[O-])cc1.[Na+].[Na+]`, in series [1], the Ratio was determined as 0.99.
For the molecule `CC/C(=C(/CC)c1ccc(O)cc1)c1ccc(O)cc1` [DIETHYLSTILBESTROL], in [6], the activity at 10 µM turned out to be 45%. Further, the results for the Ratio in series [2] and in series [1] were 1.04 and 1.06, respectively. The inhibition result in [3] was “inactive”.
Consider `Cc1c(-c2ccc(O)cc2)[nH]c2ccc(O)cc12`, for which, in [1], the Ratio was determined as 0.8.
As for `CC/C(=C(/CC)c1ccc(OCCCO)cc1)c1ccc(OCCCO)cc1`, the entries for the “inhibition (INH)” value in [7] and in [5] were “Active” and “Dose-dependent effect”, respectively. For the same molecule, the Ratio in series [2] came out at 1.09; in series [8], 0.98; in series [4] it was 1.05; in series [1], 1.23. The inhibition entry in series [3] was “inactive”. The Activity was 34.67% in series [9] and “Non-Toxic” in [10]. Besides, the Activity result in [11] was “inactive”.
As for `CC/C(=C(/CC)c1ccc(OC)cc1)c1ccc(OC)cc1`, the Ratio in series [2] was determined as 1.09; in [1], 1.19. Moreover, the inhibition result in series [3] was “inactive”. In addition, the “inhibition (INH)” value in series [5] is recorded as “Dose-dependent effect”.
`CC/C(=C(/CC)c1ccc(OCCCCS(=O)(=O)[O-])cc1)c1ccc(OCCCCS(=O)(=O)[O-])cc1.[Na+].[Na+]`: in [1], the Ratio came to 0.95.
As for `CC/C(=C(\c1ccccc1)c1ccc(OCCN(C)C)cc1)c1ccccc1` [TAMOXIFEN], the INH result in [12] is recorded as “Active”. In addition, the Ratio in series [1] is given as 1.13.
In the case of `COc1ccc2[nH]c(-c3ccc(OC)c(OC)c3)c(C)c2c1`, the Ratio in series [1] is listed as 0.9.
As for `CC/C(=C(/CC)c1ccc(OCCCS(=O)(=O)[O-])cc1)c1ccc(OCCCS(=O)(=O)[O-])cc1.[Na+].[Na+]`, the Ratio in series [1] stood at 1.03.
Same read-out and setting: as for `CC/C(=C(/CC)c1ccc(OCCOS(=O)(=O)[O-])cc1)c1ccc(OCCOS(=O)(=O)[O-])cc1.[Na+].[Na+]`, the figure is 1.04; as for `COc1ccc(-n2nc(C)c3c2NC(=O)C[C@@H]3c2ccc(O)c(OC)c2)cc1`, 1.11; as for `Cc1c(-c2ccc(O)c(O)c2)[nH]c2ccc(OCCO)cc12`, 1.01.
For `CC/C(=C(/CC)c1ccc(OCCCCOC(C)=O)cc1)c1ccc(OCCCCOC(C)=O)cc1`, the results for the Ratio in series [2], in series [4] and in series [1] were 1.09, 1.01 and 1.18, respectively. In addition, in [3], the inhibition result was “inactive”. Besides, the “inhibition (INH)” value in series [5] was “Dose-dependent effect”.
For `CC/C(=C(/CC)c1ccc(OCCCCO)cc1)c1ccc(OCCCCO)cc1`, the Ratio in series [13] is 1; in series [2] it was 1.08; in series [8] it was 0.99; in [4], 1.1; in series [1], 1.32. Moreover, the INH entry in series [12] is on record as “Active”. In [3], the inhibition result is “inactive”. Also, in series [14], the Activity result is “inactive”. For the same molecule, the “inhibition (INH)” value in [5] was “Dose-dependent effect”. Moreover, the results for the Activity in [9] and in series [10] were 41% and “Non-Toxic”, respectively.
